Experimental data: patent publication US4954358A, “Multiplication inhibitor for Bacillus cereus” (priority 1986, dated 1990)

What follows are compounds tested on Bacillus cereus (assay: MIC, agar plate dilution method on standard nutrient agar). Conditions: Bacillus cereus spores, 37° C., 24 hours, judged with the naked eye.
Type: cell-based
Method: (§1) The minimum growth inhibiting concentration (MIC) of various antibacterial substances against Bacillus cereus and other general putrefying bacteria were measured by using a standard nutrient agar (made by Difco Corp.) and by introducing the agar plate dilution method.
(§2) On a plain culture medium on which chemicals were placed in a stepwise dilution system the liquid spore suspension (×10^8 /ml) with respect to the strains of the genus of Bacillus and the respective pre-culture mediums (37° C., 24 hours) provided by Brain Heart Infusion Broth with respect to the other strains were smeared.

Row | Compound | minimum growth inhibiting concentration (MIC)
1 | CCCCCCCCCC(=O)OCC(O)CO (centres unmarked) [Capric acid monoglyceride] | 0.01%
2 | NCC(=O)O [Glycine] | > 8%
3 | CC(=O)[O-].[Na+] [Sodium acetate] | > 0.5%
4 | O=P([O-])([O-])OP(=O)([O-])[O-].[Na+].[Na+].[Na+].[Na+] [Sodium pyrophosphate] | > 0.5%
5 | Caprylic acid monoglyceride | 0.05%
6 | Lysozyme | > 0.05%
7 | Sodium polyphosphate | 0.5%

Same assay, conditions: standard nutrient agar, result in words

Row | Compound | growth inhibition effect against Bacillus cereus
8 | CCCCCCCCCC(=O)OCC(O)CO (centres unmarked) [Capric acid monoglyceride] | showed effectiveness
9 | Caprylic acid monoglyceride | showed effectiveness
10 | Sodium polyphosphate | showed effectiveness

These compounds were tested on Bacillus coaglans in the same assay as above. Conditions: Bacillus coaglans spores, 37° C., 24 hours.
Type: cell-based
Method: as §1, §2

Row | Compound | minimum growth inhibiting concentration (MIC)
11 | CCCCCCCCCC(=O)OCC(O)CO (centres unmarked) [Capric acid monoglyceride] | 0.01%
12 | NCC(=O)O [Glycine] | 1%
13 | CC(=O)[O-].[Na+] [Sodium acetate] | > 0.5%
14 | O=P([O-])([O-])OP(=O)([O-])[O-].[Na+].[Na+].[Na+].[Na+] [Sodium pyrophosphate] | > 0.5%
15 | Caprylic acid monoglyceride | 0.05%
16 | Lysozyme | 0.05%
17 | Sodium polyphosphate | 0.5%

Each compound was assayed on Bacillus licheniformis in the same assay as above. Conditions: Bacillus licheniformis spores, 37° C., 24 hours.
Type: cell-based
Method: as §1, §2

Row | Compound | minimum growth inhibiting concentration (MIC)
18 | CCCCCCCCCC(=O)OCC(O)CO (centres unmarked) [Capric acid monoglyceride] | 0.01%
19 | NCC(=O)O [Glycine] | 2%
20 | CC(=O)[O-].[Na+] [Sodium acetate] | > 0.5%
21 | O=P([O-])([O-])OP(=O)([O-])[O-].[Na+].[Na+].[Na+].[Na+] [Sodium pyrophosphate] | > 0.5%
22 | Caprylic acid monoglyceride | 0.05%
23 | Lysozyme | > 0.05%

Same assay, conditions: Bacillus licheniformis spores, 37° C., 24 hours; in %

Row | Compound | minimum growth inhibiting concentration (MIC)
24 | Sodium polyphosphate | 0.025

What follows are compounds tested on Bacillus megaterium in the same assay as above. Conditions: Bacillus megaterium spores, 37° C., 24 hours.
Type: cell-based
Method: as §1, §2

Row | Compound | minimum growth inhibiting concentration (MIC)
25 | CCCCCCCCCC(=O)OCC(O)CO (centres unmarked) [Capric acid monoglyceride] | 0.01%
26 | NCC(=O)O [Glycine] | 1%
27 | CC(=O)[O-].[Na+] [Sodium acetate] | > 0.5%
28 | O=P([O-])([O-])OP(=O)([O-])[O-].[Na+].[Na+].[Na+].[Na+] [Sodium pyrophosphate] | > 0.5%
29 | Caprylic acid monoglyceride | 0.05%
30 | Lysozyme | 0.05%

Same assay, conditions: Bacillus megaterium spores, 37° C., 24 hours; in %

Row | Compound | minimum growth inhibiting concentration (MIC)
31 | Sodium polyphosphate | 0.025

The compounds below were run on Bacillus subtilis in the same assay as above. Conditions: Bacillus subtilis spores, 37° C., 24 hours.
Type: cell-based
Method: as §1, §2

Row | Compound | minimum growth inhibiting concentration (MIC)
32 | CCCCCCCCCC(=O)OCC(O)CO (centres unmarked) [Capric acid monoglyceride] | 0.01%
33 | NCC(=O)O [Glycine] | 1%
34 | CC(=O)[O-].[Na+] [Sodium acetate] | > 0.5%
35 | O=P([O-])([O-])OP(=O)([O-])[O-].[Na+].[Na+].[Na+].[Na+] [Sodium pyrophosphate] | > 0.5%
36 | Caprylic acid monoglyceride | 0.05%
37 | Lysozyme | 0.02%

Same assay, conditions: Bacillus subtilis spores, 37° C., 24 hours; in %

Row | Compound | minimum growth inhibiting concentration (MIC)
38 | Sodium polyphosphate | 0.025

What follows are compounds tested on Lactobacillus casei in the same assay as above. Conditions: 37° C., 24 hours.
Type: cell-based
Method: as §1, §2

Row | Compound | minimum growth inhibiting concentration (MIC)
39 | NCC(=O)O [Glycine] | 4%
40 | CC(=O)[O-].[Na+] [Sodium acetate] | > 0.5%
41 | O=P([O-])([O-])OP(=O)([O-])[O-].[Na+].[Na+].[Na+].[Na+] [Sodium pyrophosphate] | > 0.5%
42 | Caprylic acid monoglyceride | 0.05%
43 | Lysozyme | > 0.05%
44 | Sodium polyphosphate | 0.5%

Same assay, conditions: 37° C., 24 hours, in %

Row | Compound | minimum growth inhibiting concentration (MIC)
45 | CCCCCCCCCC(=O)OCC(O)CO (centres unmarked) [Capric acid monoglyceride] | 0.025

Each compound was assayed on Leuconostoc mesenteroides in the same assay as above. Conditions: 37° C., 24 hours.
Type: cell-based
Method: as §1, §2

Row | Compound | minimum growth inhibiting concentration (MIC)
46 | NCC(=O)O [Glycine] | 4%
47 | CC(=O)[O-].[Na+] [Sodium acetate] | > 0.5%
48 | O=P([O-])([O-])OP(=O)([O-])[O-].[Na+].[Na+].[Na+].[Na+] [Sodium pyrophosphate] | > 0.5%
49 | Caprylic acid monoglyceride | 0.05%
50 | Lysozyme | > 0.05%
51 | Sodium polyphosphate | 0.5%

Same assay, conditions: 37° C., 24 hours, in %

Row | Compound | minimum growth inhibiting concentration (MIC)
52 | CCCCCCCCCC(=O)OCC(O)CO (centres unmarked) [Capric acid monoglyceride] | 0.025

What follows are compounds tested on Staphylococcus aureus in the same assay as above. Conditions: 37° C., 24 hours.
Type: cell-based
Method: as §1, §2

Row | Compound | minimum growth inhibiting concentration (MIC)
53 | NCC(=O)O [Glycine] | 5%
54 | CC(=O)[O-].[Na+] [Sodium acetate] | > 0.5%
55 | O=P([O-])([O-])OP(=O)([O-])[O-].[Na+].[Na+].[Na+].[Na+] [Sodium pyrophosphate] | > 0.5%
56 | Caprylic acid monoglyceride | 0.1%
57 | Lysozyme | > 0.05%
58 | Sodium polyphosphate | 0.5%

Same assay, conditions: 37° C., 24 hours, in %

Row | Compound | minimum growth inhibiting concentration (MIC)
59 | CCCCCCCCCC(=O)OCC(O)CO (centres unmarked) [Capric acid monoglyceride] | 0.025

What follows are compounds tested on Streptococcus faecalis in the same assay as above. Conditions: 37° C., 24 hours.
Type: cell-based
Method: as §1, §2

Row | Compound | minimum growth inhibiting concentration (MIC)
60 | NCC(=O)O [Glycine] | 4%
61 | CC(=O)[O-].[Na+] [Sodium acetate] | > 0.5%
62 | O=P([O-])([O-])OP(=O)([O-])[O-].[Na+].[Na+].[Na+].[Na+] [Sodium pyrophosphate] | > 0.5%
63 | Caprylic acid monoglyceride | 0.05%
64 | Lysozyme | > 0.05%
65 | Sodium polyphosphate | 0.5%

Same assay, conditions: 37° C., 24 hours, in %

Row | Compound | minimum growth inhibiting concentration (MIC)
66 | CCCCCCCCCC(=O)OCC(O)CO (centres unmarked) [Capric acid monoglyceride] | 0.025

These compounds were tested on total viable bacteria (assay: Keeping test, cooked rice not contaminated with Bacillus cereus, 30° C.). Conditions: time without smell of putrefaction or change in outward appearance, chemical 0.01% by weight.
Type: cell-based

Row | Compound | Effective keeping time
67 | CCCCCCCCCC(=O)OCC(O)CO (centres unmarked) [Capric acid monoglyceride] | 35.0 h

Same assay, conditions: time without smell of putrefaction or change in outward appearance, chemical 0.05% by weight

Row | Compound | Effective keeping time
68 | Caprylic acid monoglyceride | 35.0 h
69 | Lysozyme | 35.0 h

Same assay, conditions: time without smell of putrefaction or change in outward appearance, chemical 0.4% by weight

Row | Compound | Effective keeping time
70 | CC(=O)[O-].[Na+] [Sodium acetate] | 43.0 h

Same assay, conditions: time without smell of putrefaction or change in outward appearance, chemical 0.5% by weight

Row | Compound | Effective keeping time
71 | O=P([O-])([O-])OP(=O)([O-])[O-].[Na+].[Na+].[Na+].[Na+] [Sodium pyrophosphate] | 35.0 h
72 | Sodium polyphosphate | 35.0 h

Same assay, conditions: time without smell of putrefaction or change in outward appearance, chemical 1% by weight

Row | Compound | Effective keeping time
73 | NCC(=O)O [Glycine] | 110.0 h

What follows are compounds tested on Bacillus cereus (assay: Keeping test, cooked rice contaminated with Bacillus cereus, 30° C.). Conditions: cooked rice (Example 4), result in words.
Type: cell-based
Method: Two hundred grams of polished rice was washed in water, and with the addition of 240 ml of water, it was cooked for approximately 15 minutes in an electric rice-cooker which was of the type in public use. The rice cooked was left standing in hot steam for 10 minutes, and then left to cool off at room temperature. On the other hand, a suspension of spores of Bacillus cereus was prepared and added to the cooked rice, which had cooled off, in the proportion of n×10^2 to 1 g final specimen. Specimens were prepared by mixing the rice evenly with addition of the spores.
The cooked rice was put in a plastic case for each 120 g and its temperature was maintained at 30° C., and the number of total viable bacteria and the number of Bacillus cereus were measured periodically using a standard agar culture medium (37° C., 48 hours) and a polymyxin BCW agar culture medium with 5% egg yellow (37° C., 24 hours) for each In parallel with this measurement of the bacterium number, the specimens were examined concerning the outward appearance and the possible smell of putrefaction.
Each of the chemicals shown in Table 4 was dissolved in 20 ml of water to form an aqueous solution of a set concentration.

Row | Compound | effectiveness against Bacillus cereus in tests with actual food
74 | NCC(=O)O [Glycine] | proved effective, though the effect is of no practical value
75 | CC(=O)[O-].[Na+] [Sodium acetate] | proved effective, though the effect is of no practical value

Same assay, conditions: cooked rice contaminated with Bacillus cereus, 30° C.; time until Bacillus cereus 10^6 /g or more; chemical 0.01% by weight

Row | Compound | Effective keeping time
76 | CCCCCCCCCC(=O)OCC(O)CO (centres unmarked) [Capric acid monoglyceride] | 8.4 h

Same assay, conditions: cooked rice contaminated with Bacillus cereus, 30° C.; time until Bacillus cereus 10^6 /g or more; chemical 0.05% by weight

Row | Compound | Effective keeping time
77 | Caprylic acid monoglyceride | 8.6 h
78 | Lysozyme | 8.5 h

Same assay, conditions: cooked rice contaminated with Bacillus cereus, 30° C.; time until Bacillus cereus 10^6 /g or more; chemical 0.4% by weight

Row | Compound | Effective keeping time
79 | CC(=O)[O-].[Na+] [Sodium acetate] | 11.5 h

Same assay, conditions: cooked rice contaminated with Bacillus cereus, 30° C.; time until Bacillus cereus 10^6 /g or more; chemical 0.5% by weight

Row | Compound | Effective keeping time
80 | O=P([O-])([O-])OP(=O)([O-])[O-].[Na+].[Na+].[Na+].[Na+] [Sodium pyrophosphate] | 8.6 h
81 | Sodium polyphosphate | 9.0 h

Same assay, conditions: cooked rice contaminated with Bacillus cereus, 30° C.; time until Bacillus cereus 10^6 /g or more; chemical 1% by weight

Row | Compound | Effective keeping time
82 | NCC(=O)O [Glycine] | 10.1 h

These compounds were tested on total viable active bacteria (assay: Keeping test, potato salad not contaminated with Bacillus cereus, 30° C.). Conditions: time without smell of putrefaction or change in outward appearance, chemical 0.4% by weight.
Type: cell-based
Method: (§3) Potato salad was prepared according to the following recipe.
(§4) Mayonnaise in the proportion of 10% by weight against the above materials was combined with various chemicals of prescribed concentrations listed in Table 5 and these were evenly mixed with the above food materials. Mixed specimens were prepared by inoculating Bacillus cereus in the form of a spore suspension in such a way as to make the bacterial number n×10^2 per gram on the final specimen.
(§5) The potato salad thus prepared was packed into plastic containers and left standing at 30° C. The bacterial number of total viable active bacteria and that of Bacillus cereus were measured with respect to the changes with time by the same method as in Example 1.
(§6) The effective keeping time and the figures in the upper and the lower spaces for each chemical in the list are used in the same meanings as in Example 4.

Row | Compound | Effective keeping time
83 | CC(=O)[O-].[Na+] [Sodium acetate] | 27.0 h

Same assay, conditions: time without smell of putrefaction or change in outward appearance, chemical 1% by weight

Row | Compound | Effective keeping time
84 | NCC(=O)O [Glycine] | 36.0 h

What follows are compounds tested on Bacillus cereus (assay: Keeping test, potato salad contaminated with Bacillus cereus, 30° C.). Conditions: time until Bacillus cereus 10^6 /g or more, chemical 0.4% by weight.
Type: cell-based
Method: as §3, §4
The same Bacillus cereus as in Example 1 was employed for this example.
as §5, §6

Row | Compound | Effective keeping time
85 | CC(=O)[O-].[Na+] [Sodium acetate] | 10.0 h

Same assay, conditions: time until Bacillus cereus 10^6 /g or more, chemical 1% by weight

Row | Compound | Effective keeping time
86 | NCC(=O)O [Glycine] | 12.0 h
